Several values for one entry are separate records, joined by “and”; a condition that tells them apart may be missing. Identical values can stand only once.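 Method: 48-hour compound exposure of cells in 96-well plates, five concentrations, linear interpolation of endpoints. GI50 marks 50% less growth. TGI: total growth inhibition.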
Legend:
Test in all cases: DTP human tumour cell line panel, 48 h; in the data active = GI50 below about 0.43 µM; inactive = the rest
[1] = tested on: 786-0 renal
[2] = tested on: A498 renal
[3] = tested on: A549 NSCLC
[4] = tested on: ACHN renal
[5] = tested on: BT-549 breast
[6] = tested on: CAKI-1 renal
[7] = tested on: CCRF-CEM leukemia
[8] = tested on: COLO 205 colon
[9] = tested on: DU-145 prostate
[10] = tested on: EKVX NSCLC
[11] = tested on: HCC-2998 colon
[12] = tested on: HCT-116 colon
[13] = tested on: HCT-15 colon
[14] = tested on: HL-60(TB) leukemia
[15] = tested on: HOP-62 NSCLC
[16] = tested on: HOP-92 NSCLC
[17] = tested on: HS 578T breast
[18] = tested on: HT29 colon
[19] = tested on: K-562 leukemia
[20] = tested on: KM12 colon
[21] = tested on: LOX IMVI melanoma
[22] = tested on: M14 melanoma
[23] = tested on: MALME-3M melanoma
[24] = tested on: MCF7 breast
[25] = tested on: MDA-MB-231 breast
[26] = tested on: MDA-MB-435
[27] = tested on: MDA-N
[28] = tested on: MOLT-4 leukemia
[29] = tested on: NCI-H226 lung
[30] = tested on: NCI-H23 lung
[31] = tested on: NCI-H460 lung
[32] = tested on: NCI-H522 lung
[33] = tested on: NCI/ADR-RES ovarian
[34] = tested on: OVCAR-3 ovarian
[35] = tested on: OVCAR-4 ovarian
[36] = tested on: OVCAR-5 ovarian
[37] = tested on: OVCAR-8 ovarian
[38] = tested on: PC-3 prostate
[39] = tested on: RPMI-8226 leukemia
[40] = tested on: RXF 393 renal
[41] = tested on: SF-268 CNS
[42] = tested on: SF-295 CNS
[43] = tested on: SF-539 CNS
[44] = tested on: SK-MEL-2 melanoma
[45] = tested on: SK-MEL-28 melanoma
[46] = tested on: SK-MEL-5 melanoma
[47] = tested on: SK-OV-3 ovarian
[48] = tested on: SN12C renal
[49] = tested on: SNB-19 CNS
[50] = tested on: SNB-75 CNS
[51] = tested on: SR leukemia
[52] = tested on: SW-620 colon
[53] = tested on: T-47D breast
[54] = tested on: TK-10 renal
[55] = tested on: U251 CNS
[56] = tested on: UACC-257 melanoma
[57] = tested on: UACC-62 melanoma
[58] = tested on: UO-31 renal

Nc1ccn(C2OC(CO)C(O)C2(F)F)c(=O)n1 (stereo not drawn)
70100 nM: TGI [49]
2550 nM and 21400 nM: TGI [6]
3480 nM: TGI [4]
148 nM and 24.9 nM: TGI [22]
active: GI50 [1] 3.9 nM | GI50 [2] 54.8 nM | GI50 [3] 15.8 nM | GI50 [4] 25.2 nM and 3.79 nM | GI50 [5] 74.4 nM and 17.8 nM | GI50 [6] 9.25 nM | GI50 [7] 61.4 nM and 26.8 nM | GI50 [9] 27.4 nM | GI50 [12] 7.46 nM | GI50 [14] 28.6 nM | GI50 [15] 25.5 nM | GI50 [16] 223 nM | GI50 [19] 82.4 nM | GI50 [21] 28.5 nM | GI50 [22] 6.39 nM | GI50 [23] 88.3 nM | GI50 [24] 5.52 nM | GI50 [26] 18.9 nM | GI50 [27] 64.7 nM | GI50 [28] 44.1 nM | GI50 [29] 146 nM and 95 nM | GI50 [30] 7.88 nM | GI50 [31] 6.51 nM | GI50 [33] 14.4 nM | GI50 [36] 182 nM | GI50 [37] 12.2 nM | GI50 [40] 36.3 nM | GI50 [41] 37.8 nM | GI50 [42] 38.9 nM | GI50 [43] 16.7 nM | GI50 [46] 39.2 nM | GI50 [47] 215 nM and 307 nM | GI50 [48] 39.1 nM | GI50 [49] 13.1 nM | GI50 [50] 247 nM and 25.8 nM and 30.6 nM | GI50 [51] 57.9 nM | GI50 [52] 342 nM and 325 nM | GI50 [55] 22.1 nM | GI50 [57] 38.3 nM | GI50 [58] 17.5 nM
> 100000 nM: TGI [3] | TGI [5] | TGI [8] | TGI [10] | TGI [11] | TGI [12] | TGI [13] | TGI [17] | TGI [18] | TGI [20] | TGI [21] | TGI [24] | TGI [25] | TGI [26] | TGI [27] | TGI [29] | TGI [34] | TGI [35] | TGI [36] | TGI [38] | TGI [39] | TGI [44] | TGI [45] | TGI [46] | TGI [47] | TGI [52] | TGI [54] | TGI [55] | TGI [56]
1020 nM: TGI [37]
944 nM: TGI [50]
946 nM and 1110 nM: TGI [48]
220 nM: TGI [14]
685 nM and 433 nM and 327 nM: TGI [58]
21.6 nM: TGI [42]
inactive: GI50 [8] 568 nM | GI50 [11] 940 nM | GI50 [13] 2200 nM | GI50 [17] > 100000 nM | GI50 [20] 2840 nM | GI50 [25] 7260 nM and 924 nM | GI50 [32] 1350 nM | GI50 [34] 3620 nM | GI50 [35] > 100000 nM | GI50 [39] 561 nM | GI50 [53] 1010 nM and 1390 nM | GI50 [54] > 100000 nM
553 nM and 63.3 nM: TGI [43]
805 nM and 3160 nM: TGI [15]
